# Laboratory results published in patent US4567302A, “Polymeric quaternary ammonium salts possessing antimicrobial activity and methods for preparation and use thereof” (priority 1984, dated 1986).
# Test system: microorganisms
# Test: Biocidal activity evaluation, overall comparison in words
# Type: cell-based
# Description: The biocidal activity evaluations of the present invention quaternary ammonium salts and mixtures thereof as well as of commercially available biocides (for comparison purposes) were conducted using the Dynatech MIC-2000 system (available from Dynatech Laboratories, Inc., Alexandria, Va.). The Dynatech MIC-2000 system provides a quantitative factor, namely the specific concentration of the compound that inhibits the growth of a test organism.
# All compounds were prepared for testing by initially making a 1.0% w/v solution. These were then serially diluted so as to yield concentrations of sample in a range of 2000-16 mg/l. Testing was carried out under aseptic conditions in Trypticase Soy Broth (BBL, Div. Becton, Dickinson & Co., Cockeysville, MD). Each test was performed in duplicate and run at pH levels of 7.0, 8.0, and 9.0. The pH of the test medium was adjusted by the addition of 10% w/v NaOH before sterilization.
# Organisms utilized for MIC testing were all purchased from the American Type Culture Collection (ATCC), Rockville, MD. The six organisms chosen for these tests were:
# Inocula were prepared in Brain Heart Infusion Broth (BHI, Difco Laboratories, Detroit, MI), and standardized to 3.0×10^8 CFU/ml in 0.85% sterile saline. […] Plates were read and evaluated at this time, and results reported in mg/l of compound that inhibited the growth of the test organisms.
compound,measurement,value
O=[N+]([O-])C(Br)(CO)CO [Bronopol],biocidal activity (in words),more active than the quaternary ammonium salts of the present invention
